Data on one molecule can be found in article PMC8820820, “Feasibility and safety of targeting mitochondria for cancer therapy – preclinical characterization of gamitrinib, a first-in-class, mitochondriaL-targeted small molecule Hsp90 inhibitor” (Cancer Biology & Therapy, 2022).

Where two headings read alike, the source gives them in different places.

The target of one series is T1, Kir2.1 (Homo sapiens, UniProt P63252).
T1 sequence (P63252 1-427): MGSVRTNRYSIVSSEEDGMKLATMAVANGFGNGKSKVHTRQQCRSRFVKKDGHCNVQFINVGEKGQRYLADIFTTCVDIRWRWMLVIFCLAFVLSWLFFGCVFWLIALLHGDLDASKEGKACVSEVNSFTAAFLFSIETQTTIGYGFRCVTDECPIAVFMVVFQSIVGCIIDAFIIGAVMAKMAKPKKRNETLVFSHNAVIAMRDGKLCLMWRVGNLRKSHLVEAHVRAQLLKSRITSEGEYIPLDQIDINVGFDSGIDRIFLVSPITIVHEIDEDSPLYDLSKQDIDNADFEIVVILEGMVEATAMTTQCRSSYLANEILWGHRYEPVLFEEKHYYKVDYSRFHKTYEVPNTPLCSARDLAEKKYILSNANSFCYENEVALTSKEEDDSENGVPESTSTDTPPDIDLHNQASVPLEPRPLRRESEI
Put plainly: Ion channel screening. The class given is cell-based. The conditions noted are these: 10 µM, pulse 10.

The subject of the next series is beagle dogs. Put plainly: Toxicity in beagle dogs. The class given is in vivo. The method, then: Eighteen male and female (5–6 mo old) purebred beagle dogs (Cumberland, VA) were acclimated for 47 d (20°C to 26°C, relative humidity 30–70%, 10 or greater air changes/h, and a 12-h light/dark cycle) prior to study initiation. Animals were given water ad libitum and Certified Canine Diet #5007 (PMI Nutrition International Certified LabDiet®) for 4 to 5 h each day. At study initiation, animal body weights ranged from 8.6 to 11.5 kg for males and 6.0 to 9.4 kg for females. At least 1 week prior to initiation of dosing, animals were fasted overnight, anesthetized, and a catheter attached to a subcutaneous vascular access port was surgically implanted into a jugular vein. Animals were acclimated to infusion jackets prior to catheter implantation surgery. Animals were infused with sterile saline at a dose rate of 5 mL/h when the vascular access ports were accessed and when animals were connected to the infusion system (except when dosed with the test or vehicle control article). The patency of each catheter was checked as needed. Prednisolone tablets were administered orally at 2 mg/kg the night prior to dosing. Diphenhydramine (5 mg/kg; IM injection 0.1 mL/kg, 50 mg/mL) was administered prior to dosing and post the start of infusion (d 1 only). Male and female dogs received dose levels of Gamitrinib of 1.25, 3.33 and 6.25 mg/kg/dose formulated as indicated above during a 1 h infusion on d 1, 8, 11, 15, 18, 22, 25, 29, 32, and 36 at a volume of 2 mL/kg. The vehicle control was as above. […] Dosing was stopped, and 23 of 24 animals were administered additional diphenhydramine, 11 were administered Flunixin meglumine and buprenorphine, and 6 were administered acepromazine. Symptoms subsided in all animals after completion of these interventions. As a result of these observations, the polysorbate levels, which were increased from 0.025% (w/v) to 0.125% (w/v) to minimize precipitation, were returned to the original concentrations; 2 mg/kg prednisone was administered orally the night prior to dosing; and the diphenhydramine pretreatment dose was updated to 5 mg/kg 15 to 30 min prior to dosing. Detailed observations were conducted for each animal up to seven times during the predose phase, prior to dosing on d 1, 8, 15, 22, 29, and 36 of the dosing phase, and on d 1, 7, and 14 of the recovery phase. Blood samples (1 mL) were collected via the cephalic vein 5, 15, and 30 min and 1, 4, 8, and 24 h post the end of infusion on d 8 and 36 of the dosing phase. Formalin-fixed and paraffin-embedded tissue samples collected at the end of the study (d 39) were processed for histologic examination.

The next series addresses T2, CYP2A6 (Homo sapiens, UniProt P11509).
T2 sequence (P11509 1-494): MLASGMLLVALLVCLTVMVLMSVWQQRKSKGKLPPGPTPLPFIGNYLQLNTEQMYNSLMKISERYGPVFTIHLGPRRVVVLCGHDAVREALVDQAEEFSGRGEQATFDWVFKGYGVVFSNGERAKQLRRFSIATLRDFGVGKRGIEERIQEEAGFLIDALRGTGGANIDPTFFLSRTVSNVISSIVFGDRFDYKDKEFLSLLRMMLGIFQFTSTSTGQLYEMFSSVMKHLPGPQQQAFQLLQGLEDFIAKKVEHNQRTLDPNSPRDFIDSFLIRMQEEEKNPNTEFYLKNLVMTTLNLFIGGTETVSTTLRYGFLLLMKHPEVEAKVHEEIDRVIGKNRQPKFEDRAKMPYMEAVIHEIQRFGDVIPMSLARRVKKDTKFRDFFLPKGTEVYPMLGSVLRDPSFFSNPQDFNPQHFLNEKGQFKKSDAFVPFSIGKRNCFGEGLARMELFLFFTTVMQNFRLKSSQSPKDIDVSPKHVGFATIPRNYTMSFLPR
The conditions noted are these: microsomes.

For a further series, the target named is T3, CYP2C8 (Homo sapiens, UniProt P10632).
T3 sequence (P10632 1-490): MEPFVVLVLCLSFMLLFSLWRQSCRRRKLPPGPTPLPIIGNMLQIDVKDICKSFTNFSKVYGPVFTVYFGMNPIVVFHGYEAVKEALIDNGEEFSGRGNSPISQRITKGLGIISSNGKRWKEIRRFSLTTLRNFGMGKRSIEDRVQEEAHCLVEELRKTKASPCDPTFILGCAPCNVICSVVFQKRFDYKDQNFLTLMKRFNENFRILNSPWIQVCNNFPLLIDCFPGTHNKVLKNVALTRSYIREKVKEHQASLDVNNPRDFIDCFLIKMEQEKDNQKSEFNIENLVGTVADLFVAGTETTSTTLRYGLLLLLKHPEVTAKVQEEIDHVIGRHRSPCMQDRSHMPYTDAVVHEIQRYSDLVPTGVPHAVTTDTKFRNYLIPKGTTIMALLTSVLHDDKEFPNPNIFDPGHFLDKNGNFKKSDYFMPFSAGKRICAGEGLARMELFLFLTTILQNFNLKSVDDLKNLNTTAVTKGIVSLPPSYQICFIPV
The conditions noted are these: microsomes.

The next series addresses CYP3A4 (Homo sapiens, UniProt P08684). The note with it: microsomes.
The next series concerns NCI 60 cell-line screen. Set-up: method as in PMID 20876793, PMID 21285984. The note with it: read-out: IC50, anticancer activity, cited from earlier work.
A further series concerns tumor. The conditions noted are these: mice; cited from earlier work.
The nature of series [1]: Stability in human plasma.

CYP3A4, sequence (P08684 whole entry): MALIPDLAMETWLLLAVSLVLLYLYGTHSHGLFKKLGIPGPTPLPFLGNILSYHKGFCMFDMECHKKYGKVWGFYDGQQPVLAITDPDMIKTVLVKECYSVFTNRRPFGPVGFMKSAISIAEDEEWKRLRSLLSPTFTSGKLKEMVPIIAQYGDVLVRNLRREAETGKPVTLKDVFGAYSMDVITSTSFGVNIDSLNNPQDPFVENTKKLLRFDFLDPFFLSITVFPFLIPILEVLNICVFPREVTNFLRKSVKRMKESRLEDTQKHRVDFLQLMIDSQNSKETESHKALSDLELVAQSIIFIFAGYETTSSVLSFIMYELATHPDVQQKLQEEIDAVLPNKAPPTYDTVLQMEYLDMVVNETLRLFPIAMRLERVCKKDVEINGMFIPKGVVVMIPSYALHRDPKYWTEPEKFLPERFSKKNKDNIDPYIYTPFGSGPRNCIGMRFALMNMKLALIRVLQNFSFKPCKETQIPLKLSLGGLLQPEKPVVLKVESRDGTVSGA
Procedure for CYP2A6: (§1) CYP inhibition in liver microsomes. […] Samples were analyzed for metabolite formation by LC-MS/MS. The results were expressed using the peak area ratio of analyte to internal standard, based on the calibration curves.
(§2) Where Range=fitted uninhibited value, s=slope factor, x=inhibitor concentration, y=% control activity.
Procedure for CYP2C8: as §1, §2
Procedure for CYP3A4: as §1, §2
Source text for Kir2.1: Ion channel screening. […] Human Kir2.1 currents were evoked from a holding potential of -20 mV by a series of 10 500 msec pulses to -120 mV using a 200 msec interval between pulses. The parameters measured were the amplitudes of the instantaneous inward currents evoked on stepping to -120 mV for the 1st pulse and the maximum inward current at the end of the 10th hyperpolarizing pulse. For all experiments, data were filtered for seal quality, seal drop, and current amplitude.

What is called NOAEL is the highest dose or exposure tested at which no adverse effect was seen. As usually defined, the IC50 is the concentration that inhibits the measured activity by half. With `COC1C=CC=C(C)C(=O)NC2=CC(=O)C(NCCCCCC[P+](c3ccccc3)(c3ccccc3)c3ccccc3)=C(CC(C)CC(OC)C(O)C(C)C=C(C)C1OC(N)=O)C2=O.F[P-](F)(F)(F)(F)F` (centres unmarked) [Gamitrinib], the “inhibition of Kir2.1 currents” value on Kir2.1 is −7.3 ± 3.4%. In the series on beagle dogs (dog, in vivo), the “Bone marrow and liver parameters” value was “unremarkable”. Also, the organ weight result with beagle dogs (dog, in vivo) is “No Gamitrinib-related changes in organ weight”. Besides, the kidney microscopic findings entry in the series on beagle dogs (dog, in vivo, 6.25 mg/kg) is reported as “slight to moderate kidney tubular degeneration/regeneration”. Also, the “serum urea nitrogen and creatinine” value in the series on beagle dogs (dog, in vivo, 6.25 mg/kg) is “trend of increased serum urea nitrogen and creatinine”. The molecule also had a no-observed-adverse-effect level (NOAEL) with beagle dogs (dogs, IV for 36 d) of 3.33 mg/kg/dose. For the same molecule, in the series on beagle dogs (dogs, IV for 36 d), the “highest non-severely toxic dose (HNSTD)” value was 6.25 mg/kg/dose. For the same molecule, the IC50 was 24 µM at CYP2A6; 8 µM on CYP2C8; 120 to 200 nM against CYP3A4; 160 to 29000 nM with NCI 60 cell-line screen (NCI 60 cell-line screen, all lines); 160 to 3300 nM with NCI 60 cell-line screen (breast adenocarcinoma cell lines); 350 to 29000 nM with NCI 60 cell-line screen (colon adenocarcinoma cell lines). The half-inhibitory concentration (IC50) in the series with NCI 60 cell-line screen (melanoma cell lines) was 360 to 2700 nM. Besides, the therapeutically effective dose in the series with tumor is 10 mg/kg. Besides, the average recovery in series [1] was found to be 82.8 ± 3%. In series [1], the “stability in human plasma” value was 91.4%.
